The values that follow come from ChEMBL document CHEMBL1201862, “PubChem BioAssay data set” (2004).

The EC50 is the concentration needed to bring the measured effect to its halfway point. One may read the IC50 as the concentration at which inhibition is half-maximal. By AC50 is commonly meant the concentration giving half of the maximal activity seen. A word on the CC50: it is the concentration that lowers cell viability or growth by half.

Activity calls are given as the source filed them. Some results are limits rather than exact numbers.

A short description of experiment [1]: Luminescence Cell-Based Dose Response HTS to Identify Activators of Luciferase Translation or Activity in H4-C Neuroglioblastoma Cells. [Related pubchem assays: 1829 (Project Summary), 1814 (Primary HTS)]. It counts as functional.
A short description of experiment [2]: Luminescence Cell-Based Dose Retest to Confirm Activators of 5'UTR Stem-Loop Driven Alpha-Synuclein mRNA Translation in H4 Neuroglioblastoma Cells. [Related pubchem assays (depositor defined):AID1813, AID1829]. It counts as functional.
The nature of experiment [3]: Luminescence Cell-Based Dose Response HTS to Identify Activators of 5'UTR Stem-Loop Driven Prion Protein mRNA Translation in H4-C Neuroglioblastoma Cells. [Related pubchem assays: 1829 (Project Summary), 1814 (Primary HTS)]. Format: functional.
Experiment [4] is described as follows: Luminescence Cell-Based Dose Confirmation HTS to Identify Activators of 5'UTR Stem-Loop Driven Alpha-Synuclein mRNA Translation in H4 Neuroglioblastoma Cells. [Related pubchem assays: 1829 (Project Summary), 1814 (Primary HTS)]. Format: functional.
Experiment [5] in a line: Luminescence Cell-Based Dose Response HTS to Identify Activators of Luciferase Translation or Activity in H4 […] Cells. [Related pubchem assays: 1829 (Project Summary), 1814 (Primary HTS)]. It counts as functional.
Experiment [6] deals with T1, Mannose-6-phosphate isomerase (Homo sapiens, UniProt P34949).
T1 sequence (P34949 whole entry): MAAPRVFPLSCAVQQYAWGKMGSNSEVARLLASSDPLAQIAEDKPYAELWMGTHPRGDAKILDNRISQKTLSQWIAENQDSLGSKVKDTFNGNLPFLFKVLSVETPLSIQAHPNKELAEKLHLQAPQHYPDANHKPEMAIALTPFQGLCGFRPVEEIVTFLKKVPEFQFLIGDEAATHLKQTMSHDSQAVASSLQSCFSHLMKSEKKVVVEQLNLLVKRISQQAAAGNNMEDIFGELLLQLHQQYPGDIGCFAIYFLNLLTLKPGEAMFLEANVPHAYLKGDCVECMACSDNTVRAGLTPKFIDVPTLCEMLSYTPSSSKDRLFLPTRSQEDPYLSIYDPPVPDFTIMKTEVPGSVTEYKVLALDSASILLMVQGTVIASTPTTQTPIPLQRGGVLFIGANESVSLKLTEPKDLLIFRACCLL
Description: Confirmation of compounds inhibiting phosphomannose isomerase (PMI) via a fluorescence intensity assay using a high concentration of mannose 6-phosphate. [Related pubchem assays (depositor defined):AID1209, AID1220, AID1545, AID1553, AID1620].

The target of experiment [7] is T1, Mannose-6-phosphate isomerase. Description: PMI enzyme inhibitors, confirmation, biochemical, fluorescence intensity (AID 1535).
The target of experiment [8] is Alkaline phosphatase, placental type (Homo sapiens, UniProt P05187). Description: PLAP enzyme inhibitors, confirmation, biochemical, luminescence (AID 1512). It counts as functional.
Sequence of Alkaline phosphatase, placental type (P05187 whole entry): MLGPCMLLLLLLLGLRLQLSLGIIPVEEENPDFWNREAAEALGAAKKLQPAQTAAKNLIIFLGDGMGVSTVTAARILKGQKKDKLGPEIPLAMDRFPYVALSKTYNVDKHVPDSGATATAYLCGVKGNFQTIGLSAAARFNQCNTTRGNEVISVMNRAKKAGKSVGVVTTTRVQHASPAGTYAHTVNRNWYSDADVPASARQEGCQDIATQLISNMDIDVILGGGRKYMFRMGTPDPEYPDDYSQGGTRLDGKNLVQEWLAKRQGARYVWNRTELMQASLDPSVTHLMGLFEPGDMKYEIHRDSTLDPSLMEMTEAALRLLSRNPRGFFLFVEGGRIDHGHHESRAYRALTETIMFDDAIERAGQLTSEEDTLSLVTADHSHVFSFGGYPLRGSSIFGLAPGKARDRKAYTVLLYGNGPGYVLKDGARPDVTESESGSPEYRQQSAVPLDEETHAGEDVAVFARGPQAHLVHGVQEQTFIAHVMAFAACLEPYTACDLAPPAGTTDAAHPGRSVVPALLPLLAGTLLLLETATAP
Another experiment concerns the target Trypsin (Sus scrofa, UniProt P00761). Description: porcine trypsin inhibitors, dose response, selectivity assay for Rce1 protease inhibitor project, biochemical, quenched peptide fluorescence, cherry-pick (AID 488789).
The next experiment has as its target CAAX prenyl protease 2 (Homo sapiens, UniProt Q9Y256). Description: human Rce1 protease inhibitors, dose response, biochemical, yeast membranes, quenched-peptide fluorescence, cherry-pick (AID 588849).
Another experiment has as its target X-box-binding protein 1 (Homo sapiens, UniProt P17861). Format: functional, Cricetulus griseus.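 Also: confirmatory dose-response counter-screen serving a CHOP assay.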
Experiment [9] concerns the target T2, High affinity choline transporter 1 (Homo sapiens, UniProt Q9GZV3).
T2 sequence (Q9GZV3 whole entry): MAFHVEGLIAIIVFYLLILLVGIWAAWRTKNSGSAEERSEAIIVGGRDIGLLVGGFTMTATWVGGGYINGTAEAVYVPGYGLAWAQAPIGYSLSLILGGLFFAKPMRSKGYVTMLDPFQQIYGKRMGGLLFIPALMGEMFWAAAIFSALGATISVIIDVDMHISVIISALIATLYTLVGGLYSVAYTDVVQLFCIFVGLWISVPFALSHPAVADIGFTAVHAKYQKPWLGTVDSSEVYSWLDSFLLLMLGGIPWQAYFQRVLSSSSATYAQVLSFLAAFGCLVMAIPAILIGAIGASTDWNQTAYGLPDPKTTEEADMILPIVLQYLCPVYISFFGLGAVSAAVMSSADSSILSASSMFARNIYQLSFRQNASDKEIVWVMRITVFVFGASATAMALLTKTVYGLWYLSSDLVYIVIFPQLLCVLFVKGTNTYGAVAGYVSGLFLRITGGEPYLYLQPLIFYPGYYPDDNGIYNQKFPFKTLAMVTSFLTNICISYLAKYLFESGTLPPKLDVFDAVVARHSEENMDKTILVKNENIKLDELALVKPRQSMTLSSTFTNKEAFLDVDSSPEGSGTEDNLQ
Description: CHT inhibitors, dose response, cell-based, 5-point CRC, membrane potential dye (AID 504840). It counts as functional.

The target of the next experiment is Melanocortin receptor 4 (Homo sapiens, UniProt P32245). Description: MC4R antagonist potency on cAMP, dose response, cell-based, TR-FRET, biased antagonists (AID 602298).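 Also: antagonist potency against agonist-stimulated cAMP production.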 It counts as functional. In general terms: TR-FRET usually uses a lanthanide donor and a delayed reading to cut background.
A short description of experiment [10]: nonselective inhibitors of cellular cAMP signaling, dose response, counter-screen for MC4R biased antagonist project, cell-based, TR-FRET cAMP detection (AID 602305).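 Also: U2OS cells stimulated with forskolin near its EC80 as the cAMP inducer; potency is for inhibition of forskolin-stimulated cAMP signaling.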 Format: functional. A general note: Counterscreens check selectivity or assay interference.
In experiment [11] the target is T3, Short transient receptor potential channel 4 (Mus musculus, UniProt Q9QUQ5).
T3 sequence (Q9QUQ5 whole entry): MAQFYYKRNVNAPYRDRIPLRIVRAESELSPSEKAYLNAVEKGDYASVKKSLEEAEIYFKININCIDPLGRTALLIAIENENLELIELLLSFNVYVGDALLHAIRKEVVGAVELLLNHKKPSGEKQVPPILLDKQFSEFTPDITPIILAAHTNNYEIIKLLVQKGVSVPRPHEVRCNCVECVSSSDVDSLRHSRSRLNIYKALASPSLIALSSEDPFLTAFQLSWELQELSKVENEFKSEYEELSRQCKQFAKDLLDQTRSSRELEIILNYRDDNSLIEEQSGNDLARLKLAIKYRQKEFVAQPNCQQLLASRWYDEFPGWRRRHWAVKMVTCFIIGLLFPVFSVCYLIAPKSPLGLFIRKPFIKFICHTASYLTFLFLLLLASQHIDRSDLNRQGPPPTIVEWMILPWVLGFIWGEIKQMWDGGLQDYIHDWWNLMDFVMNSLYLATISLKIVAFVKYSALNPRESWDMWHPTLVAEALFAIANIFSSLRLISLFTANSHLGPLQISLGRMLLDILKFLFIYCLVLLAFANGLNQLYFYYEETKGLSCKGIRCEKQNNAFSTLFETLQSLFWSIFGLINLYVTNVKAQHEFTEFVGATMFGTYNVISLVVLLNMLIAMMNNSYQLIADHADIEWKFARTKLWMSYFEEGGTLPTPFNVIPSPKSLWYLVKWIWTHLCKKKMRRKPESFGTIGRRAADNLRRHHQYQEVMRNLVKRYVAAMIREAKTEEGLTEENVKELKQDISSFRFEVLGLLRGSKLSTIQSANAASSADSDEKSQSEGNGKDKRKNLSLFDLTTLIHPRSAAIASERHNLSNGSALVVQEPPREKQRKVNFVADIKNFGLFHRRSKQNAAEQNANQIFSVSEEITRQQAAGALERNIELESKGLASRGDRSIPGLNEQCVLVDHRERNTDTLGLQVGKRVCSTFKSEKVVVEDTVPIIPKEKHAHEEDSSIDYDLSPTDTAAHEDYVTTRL
Description: mouse TRPC4 channel inhibitors, dose response, cell-based, HEK293 TRPC4/mu-opioid, Fluo-4 calcium (AID 434942).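 Also: potency of inhibitors blocking the TRPC4 calcium response.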 It counts as functional.

Experiment [12] is described as follows: Cytotoxicity screening for potential Inhibitors of Bacterial Capsule Biogenesis. [Related pubchem assays (depositor defined):AID488970]. Format: functional.
Experiment [13] is described as follows: inhibition of K1F phage lysis, E. coli UTI89, bacterial capsule biogenesis inhibitors, alamar blue (AID 488966). It counts as functional. (In general: Alamar Blue is a resazurin reagent that responds to reducing activity.)
A short description of experiment [14]: Luminescence Cell-Based Dose Response to Identify Activators of 5'UTR Stem-Loop Driven Prion Protein mRNA Translation in H4-C Neuroglioblastoma Cells. [Related pubchem assays: 1829 (Project Summary), 1814 (Primary HTS)]. It counts as functional.
The test system of a further experiment is H4. Description: Luminescence Cell-Based Dose Response HTS to Identify Activators of 5'UTR Stem-Loop Driven Prion Protein mRNA Translation in H4 Neuroglioblastoma Cells. [Related pubchem assays: 1829 (Project Summary), 1814 (Primary HTS)]. It counts as functional. As to conditions: Homo sapiens.
Experiment [15] is described as follows: Luminescence Cell-Based Dose Response to Identify Activators of Luciferase Translation or Activity in H4-C Neuroglioblastoma Cells. [Related pubchem assays: 1829 (Project Summary), 1814 (Primary HTS)]. Format: functional.
The nature of experiment [16]: Luminescence Cell-Based Dose Confirmation to Identify Activators of 5'UTR Stem-Loop Driven Alpha-Synuclein mRNA Translation in H4 Neuroglioblastoma Cells. [Related pubchem assays: 1829 (Project Summary), 1814 (Primary HTS)]. It counts as functional.
In experiment [17] the target is NACHT, LRR and PYD domains-containing protein 3 (Homo sapiens, UniProt Q96P20). Description: NALP3 inhibitors in yeast, dose response, luminescent (AID 488799). Format: functional.
For experiment [18], the target named is T4, Voltage-gated N-type calcium channel alpha-1B subunit/Amyloid beta A4 precursor protein-binding family A member 1 (Homo sapiens, UniProt Q00975+Q02410). Format: protein assay.
T4 sequence (Q00975 whole entry): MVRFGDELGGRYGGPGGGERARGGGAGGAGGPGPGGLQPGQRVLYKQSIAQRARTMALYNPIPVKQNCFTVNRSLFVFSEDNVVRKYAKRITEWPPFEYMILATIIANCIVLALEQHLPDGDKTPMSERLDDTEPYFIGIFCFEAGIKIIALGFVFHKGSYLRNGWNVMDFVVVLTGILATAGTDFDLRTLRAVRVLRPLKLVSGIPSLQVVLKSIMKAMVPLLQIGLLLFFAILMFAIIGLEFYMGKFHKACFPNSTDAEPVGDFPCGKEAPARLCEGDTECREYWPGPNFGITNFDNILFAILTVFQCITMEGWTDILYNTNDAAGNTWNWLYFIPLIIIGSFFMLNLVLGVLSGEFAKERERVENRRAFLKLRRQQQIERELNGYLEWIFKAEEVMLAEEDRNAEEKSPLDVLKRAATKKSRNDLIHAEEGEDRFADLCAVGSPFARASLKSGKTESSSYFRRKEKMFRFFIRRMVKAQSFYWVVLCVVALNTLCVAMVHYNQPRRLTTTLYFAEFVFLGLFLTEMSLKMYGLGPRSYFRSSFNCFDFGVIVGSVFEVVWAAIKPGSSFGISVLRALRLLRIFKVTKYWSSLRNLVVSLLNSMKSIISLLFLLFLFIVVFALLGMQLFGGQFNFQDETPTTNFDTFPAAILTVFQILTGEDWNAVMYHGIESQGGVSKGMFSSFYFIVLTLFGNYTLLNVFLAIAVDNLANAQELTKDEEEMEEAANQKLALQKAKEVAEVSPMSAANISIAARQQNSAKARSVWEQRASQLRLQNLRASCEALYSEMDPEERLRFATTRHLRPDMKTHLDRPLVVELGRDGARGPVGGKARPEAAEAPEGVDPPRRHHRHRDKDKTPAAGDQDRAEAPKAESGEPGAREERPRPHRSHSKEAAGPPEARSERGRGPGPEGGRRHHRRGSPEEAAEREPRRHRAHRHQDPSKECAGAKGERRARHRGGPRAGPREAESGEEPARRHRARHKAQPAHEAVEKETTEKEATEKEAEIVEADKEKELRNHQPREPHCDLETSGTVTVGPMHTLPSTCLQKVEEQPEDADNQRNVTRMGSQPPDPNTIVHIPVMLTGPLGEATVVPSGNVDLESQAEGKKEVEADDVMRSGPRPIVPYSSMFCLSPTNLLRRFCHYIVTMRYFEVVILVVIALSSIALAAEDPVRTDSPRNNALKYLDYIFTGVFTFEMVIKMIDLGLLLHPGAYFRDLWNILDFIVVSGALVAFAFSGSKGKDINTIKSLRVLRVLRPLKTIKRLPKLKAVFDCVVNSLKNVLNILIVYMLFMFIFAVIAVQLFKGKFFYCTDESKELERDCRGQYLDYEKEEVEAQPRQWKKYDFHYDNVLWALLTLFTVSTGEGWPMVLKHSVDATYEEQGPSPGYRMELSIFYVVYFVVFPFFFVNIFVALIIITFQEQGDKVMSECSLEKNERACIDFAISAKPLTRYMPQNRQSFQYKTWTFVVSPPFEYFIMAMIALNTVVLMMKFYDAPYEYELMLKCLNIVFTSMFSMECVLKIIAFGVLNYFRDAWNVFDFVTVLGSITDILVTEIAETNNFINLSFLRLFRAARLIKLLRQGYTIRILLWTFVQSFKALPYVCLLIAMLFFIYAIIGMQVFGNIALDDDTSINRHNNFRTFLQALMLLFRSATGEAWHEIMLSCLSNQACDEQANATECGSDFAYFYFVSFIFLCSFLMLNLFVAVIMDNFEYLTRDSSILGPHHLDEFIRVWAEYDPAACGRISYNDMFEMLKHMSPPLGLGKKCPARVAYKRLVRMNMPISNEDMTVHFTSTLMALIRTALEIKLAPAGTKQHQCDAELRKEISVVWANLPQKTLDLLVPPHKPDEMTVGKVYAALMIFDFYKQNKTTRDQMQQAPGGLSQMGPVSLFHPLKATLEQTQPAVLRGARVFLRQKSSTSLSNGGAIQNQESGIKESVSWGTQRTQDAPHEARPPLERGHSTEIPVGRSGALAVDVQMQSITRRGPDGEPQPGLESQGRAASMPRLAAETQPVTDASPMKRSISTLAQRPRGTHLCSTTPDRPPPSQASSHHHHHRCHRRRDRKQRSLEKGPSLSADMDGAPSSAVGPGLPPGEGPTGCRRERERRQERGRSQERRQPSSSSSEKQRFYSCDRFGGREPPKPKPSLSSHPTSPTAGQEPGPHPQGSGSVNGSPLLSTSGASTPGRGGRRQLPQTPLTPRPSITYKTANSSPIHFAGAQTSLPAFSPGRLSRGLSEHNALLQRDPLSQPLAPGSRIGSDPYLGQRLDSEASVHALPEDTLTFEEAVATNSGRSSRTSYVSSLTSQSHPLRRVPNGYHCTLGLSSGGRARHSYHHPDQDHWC
T4 sequence (Q02410 whole entry): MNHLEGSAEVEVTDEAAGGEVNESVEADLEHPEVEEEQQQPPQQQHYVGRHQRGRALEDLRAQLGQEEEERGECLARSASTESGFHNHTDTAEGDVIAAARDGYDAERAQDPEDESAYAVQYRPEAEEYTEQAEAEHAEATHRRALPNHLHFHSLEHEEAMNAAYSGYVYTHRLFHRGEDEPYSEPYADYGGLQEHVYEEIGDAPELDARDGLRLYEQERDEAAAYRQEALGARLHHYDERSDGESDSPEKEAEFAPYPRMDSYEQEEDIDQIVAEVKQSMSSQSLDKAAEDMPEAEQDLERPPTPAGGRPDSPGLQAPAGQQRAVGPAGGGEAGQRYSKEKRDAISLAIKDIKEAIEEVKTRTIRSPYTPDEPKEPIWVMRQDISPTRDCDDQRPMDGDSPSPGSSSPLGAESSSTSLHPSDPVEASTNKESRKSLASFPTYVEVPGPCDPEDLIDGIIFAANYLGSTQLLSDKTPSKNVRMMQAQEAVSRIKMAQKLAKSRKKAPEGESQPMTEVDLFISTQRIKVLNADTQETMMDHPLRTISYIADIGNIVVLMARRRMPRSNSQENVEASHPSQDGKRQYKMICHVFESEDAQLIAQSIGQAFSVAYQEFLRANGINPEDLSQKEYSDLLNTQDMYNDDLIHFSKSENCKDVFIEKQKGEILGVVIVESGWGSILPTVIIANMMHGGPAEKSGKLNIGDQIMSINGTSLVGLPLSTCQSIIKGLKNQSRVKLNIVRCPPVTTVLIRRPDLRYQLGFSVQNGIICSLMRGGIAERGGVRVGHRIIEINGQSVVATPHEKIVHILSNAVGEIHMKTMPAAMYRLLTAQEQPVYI
The target in a further experiment is Large T antigen (Simian virus 40, UniProt P03070). Format: functional, Betapolyomavirus macacae.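 Also: Confirmatory-stage PubChem screen for compounds that inhibit SV40 T antigen.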
For experiment [19], the target named is T4, Voltage-gated N-type calcium channel alpha-1B subunit/Amyloid beta A4 precursor protein-binding family A member 1. It counts as protein assay. The source holds these as a separate data set.
For experiment [20] the target is unchanged. Description: disruptors of Mint-PDZ/N-type channel peptide interaction – biochemical, HTRF, SAR follow-up (AID 2489). Format: functional.
In another experiment the target is Cytochrome P450 2C19 (Homo sapiens, UniProt P33261). Description: Cytochrome panel assay with activity outcomes. Panel member name: p450-cyp2c19 Compounds with AC50 equal or less than 10 uM are considered active. It counts as functional. As to conditions: read-out: AC50.
Sequence of Cytochrome P450 2C19 (P33261 whole entry): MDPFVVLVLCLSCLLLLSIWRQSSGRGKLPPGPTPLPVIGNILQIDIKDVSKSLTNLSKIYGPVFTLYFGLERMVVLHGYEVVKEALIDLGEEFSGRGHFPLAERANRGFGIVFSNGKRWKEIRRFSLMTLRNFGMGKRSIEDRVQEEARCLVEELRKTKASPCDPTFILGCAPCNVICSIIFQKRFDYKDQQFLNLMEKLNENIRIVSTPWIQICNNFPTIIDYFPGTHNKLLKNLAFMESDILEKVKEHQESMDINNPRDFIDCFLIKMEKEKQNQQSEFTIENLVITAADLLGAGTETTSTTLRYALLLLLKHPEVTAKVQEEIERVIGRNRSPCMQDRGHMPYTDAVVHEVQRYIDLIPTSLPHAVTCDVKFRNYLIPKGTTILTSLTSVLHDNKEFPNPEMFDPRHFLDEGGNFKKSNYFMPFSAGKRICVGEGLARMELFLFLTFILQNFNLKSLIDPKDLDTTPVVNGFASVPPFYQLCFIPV
The target in the next experiment is Cytochrome P450 2C9 (Homo sapiens, UniProt P11712).
The test system of a further experiment is MDA-MB-435. Description: cells. As to conditions: Homo sapiens. It counts as functional, cell-based.
A further experiment can be described thus: cells. As to conditions: PPC-1. It counts as functional, cell-based.
For another experiment, the system named is Salmon testes DNA. Description: DNA intercalators displacing acridine orange, dose response, artefact control for KSHV LANA DNA-binding inhibitor project, biochemical, fluorescence polarization, cherry-picked samples, set 2 (AID 504727). Also noted: species or system Salmonidae.
The target of a further experiment is ORF 73 (Human herpesvirus 8, UniProt O40947). Description: inhibitors of C-LANA binding to LBS DNA, dose response, biochemical, fluorescence polarization, cherry-picked samples (AID 504725).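 Also: fluorescence polarization of a labeled DNA duplex reporting LANA DNA binding; potency is for inhibitors that block LANA binding to the DNA.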 On the set-up: species or system Human gammaherpesvirus 8.
The target of another experiment is Keap1/Nrf2 (Homo sapiens, UniProt Q14145). Description: Keap1-Nrf2 protein-protein interaction inhibitors, dose response, biochemical, fluorescence polarization, cherry-picked samples (AID 588683).

Sequence of X-box-binding protein 1 (P17861 whole entry): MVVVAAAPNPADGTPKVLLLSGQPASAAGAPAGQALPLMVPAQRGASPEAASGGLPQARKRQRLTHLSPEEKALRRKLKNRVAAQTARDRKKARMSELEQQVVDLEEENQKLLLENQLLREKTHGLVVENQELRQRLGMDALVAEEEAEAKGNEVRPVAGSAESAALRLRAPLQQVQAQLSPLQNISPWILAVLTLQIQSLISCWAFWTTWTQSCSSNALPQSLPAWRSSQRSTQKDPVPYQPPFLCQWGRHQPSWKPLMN
Sequence of CAAX prenyl protease 2 (Q9Y256 whole entry): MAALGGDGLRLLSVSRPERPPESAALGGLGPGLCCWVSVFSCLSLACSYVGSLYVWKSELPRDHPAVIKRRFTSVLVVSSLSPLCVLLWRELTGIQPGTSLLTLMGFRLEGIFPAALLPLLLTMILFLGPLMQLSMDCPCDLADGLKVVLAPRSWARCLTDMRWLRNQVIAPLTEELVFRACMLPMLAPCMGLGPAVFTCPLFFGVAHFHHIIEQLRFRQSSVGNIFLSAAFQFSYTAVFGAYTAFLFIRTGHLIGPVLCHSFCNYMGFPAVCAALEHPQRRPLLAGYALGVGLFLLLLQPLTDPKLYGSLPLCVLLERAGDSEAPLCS
Sequence of Trypsin (P00761 whole entry): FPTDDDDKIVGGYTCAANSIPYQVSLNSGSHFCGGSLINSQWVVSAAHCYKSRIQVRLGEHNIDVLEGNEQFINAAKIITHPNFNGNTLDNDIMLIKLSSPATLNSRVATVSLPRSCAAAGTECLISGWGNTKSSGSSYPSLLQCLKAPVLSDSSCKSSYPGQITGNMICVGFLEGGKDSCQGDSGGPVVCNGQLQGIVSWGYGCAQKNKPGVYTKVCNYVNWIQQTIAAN

Regarding `COc1cccc(Nc2nnc(SCc3nc4ccccc4s3)s2)c1`, the EC50 is 2.15 µM (active) in experiment [1]; 1.31 µM (active) in experiment [2]; 4.9 µM (active) in [3]; 27.4 µM (active) in experiment [4]; 46.8 µM (active) in experiment [5].

For `CCN1C(=O)C2(NNc3ccccc3O2)c2ccccc21` (centres undefined), the IC50 in [6], in experiment [7] and in experiment [8] was > 100 µM (inactive) throughout.

As for `Cc1cc(NC(=O)COC(=O)c2nccnc2N)n(-c2ccccc2)n1`, the AC50 was 25.9 µM (active) at Trypsin and 1.84 µM (active) on CAAX prenyl protease 2.

Turning to `COc1cccc(C(=O)C(C#N)=C(SC)SC)c1`, on X-box-binding protein 1, the “Absolute IC50 (XBP1)” value stood at 10 µM. The IC50 in [9] was 11.2 µM (active); at Melanocortin receptor 4, > 64.6 µM (inactive); in [10], > 64.6 µM (inactive).

Take `CCOc1ccc(-c2cc(NC(=O)c3c(F)cccc3F)c(C(=O)O)s2)cc1`: the half-maximal effective concentration (EC50) in experiment [11] is 2.99 µM (active). Also, the CC50 in experiment [12] is 66.7 µM (active).

For the compound `COc1cc(/C=C/C(=O)NC(=O)c2ccccc2O)ccc1OC(C)=O`, the 50% inhibitory concentration (IC50) in [13] is > 150 µM (active).

Regarding `Nc1ccc(Oc2cc(N)cc(Oc3ccccc3)c2)cc1`, the EC50 was 2.5 µM (active) in [14]; < 0.1 µM (active) in [5]; 20.4 µM (active) with H4; > 12 µM (not active) in experiment [15]; 1.22 µM (active) in [16]. The half-inhibitory concentration (IC50) in experiment [17] was 4.74 µM (active).

For the compound `Nc1ccc(-c2nc3ccc(N)c(Cl)c3[nH]2)cc1`, the IC50 in experiment [18] was 1.94 µM (active); on Large T antigen, 7.64 µM (active); in [19], 9.64 µM (active); in experiment [20], 11.6 µM (active). Further, the AC50 on Cytochrome P450 2C19 is 6.31 µM (inconclusive); on Cytochrome P450 2C9, 0.112 µM (inconclusive).

In the case of `CSc1nc(-c2ccccc2)nc(-c2ccccc2)n1`, the IC50 with MDA-MB-435 and in “cells” was > 10 µM (inactive) in each case.

Take `Cc1oc2cc(O)ccc2c(=O)c1-c1nncn1-c1ccccc1`: the AC50 is 49.4 µM (active) with Salmon testes DNA, 26.6 µM (active) on ORF 73 and 43.4 µM (active) at Keap1/Nrf2.
